This is an account of results in patent US4157392A, “Pharmacologically active substituted 1,2,4-triazines” (Diamond Shamrock Corporation, priority 1978, dated 1979).

Experiment [1] concerns carrageenin-induced edema in the hind paw of a rat. Put plainly: Carrageenin Assay (carrageenin-induced edema, hind paw). The format is in vivo, rat (male, Long Evans strain). The note with it: 1 h before carrageenin, edema at 3 h, compared to phenylbutazone control values; for inhibition in vivo at 150 mg/kg: 150 mg/kg oral; for inhibition in vivo at 175 mg/kg: 175 mg/kg oral. The procedure: The procedure employed is a modification of the method of Winter et al, Proc. Soc. Exptl. Biol. Med. 111:544 (1962). The device used for measurement of the paw volume is an adaptation of the water displacement procedure described by Adamkiewicz et al, Can. J. Biochem. Physiol. 33:332 (1955). Test compounds were administered orally, one hour prior to the intraplantar injection of 0.05 ml. of sterile 1.0 percent solution of carrageenin into the left hind paw of male rats (Long Evans strain) weighing between about 130-200 grams. At peak swelling time (3 hours) the volume of edema was calculated by differential paw volumes.
Table I sets forth the results obtained (indicated as percent reduction of edema compared to phenylbutazone control values) at the indicated dosages for each of the identified compounds.

Experiment [2] deals with phenylquinone writhing in mice. Put plainly: Phenylquinone Writhing Assay (analgesia). The class given is in vivo, mouse (Carworth CF1 male mice). The procedure: The phenylquinone writhing test was employed to evaluate analgesic activity according to the following procedure:
Phenylquinone (phenyl-p-benzoquinone, No. 7104, Eastman Organic Chemicals) is made up as a 0.02% aqueous solution in 5% ethyl alcohol. Phenylquinone solutions are made up fresh twice daily. Standard reference agents and the test compounds are dissolved or suspended in a 0.25% methylcellulose solution. A control group consisting of ten mice (Carworth CF1 male mice) are administered the 0.02% phenylquinone solution at a dose of 0.25 ml/mouse. The mice are housed individually and observed closely for ten minutes for exhibition of writhing. The onset of writhing occurs within three minutes and 100% of the mice must writhe within ten minutes. Test compounds are administered orally to groups of ten mice. The volume given is 0.01 ml/gram of body weight. Activity can be studied at 15, 30, 60, and 120 minutes after oral administration. After the designated time interval of a dose group has elapsed, the mice are challenged with phenylquinone intraperitoneally. Complete blocking of the writhing syndrom for the ten minute observation period in any one mouse is considered a positive analgesic response for that mouse. Conversely, if any mouse writhes definitely once it is considered not to be protected. The number of mice not writhing in group multiplied by ten equals percent analgesia for that dose at that time interval.

Setting [3] is: Rattus norvegicus, 200 mg/kg oral, read-out: % Reduction of Edema.
[4] abbreviates: Mus musculus, po, 0.25 h, 100 mg/kg oral, 15 Min., read-out: Phenylquinone Writhing Assay (% Control), percent analgesia.
[5] abbreviates: Mus musculus, po, 1 h, 100 mg/kg oral, 60 Min, read-out: Phenylquinone Writhing Assay (% Control), percent analgesia.
Setting [6] is: Rattus norvegicus, read-out: % Reduction of Edema.
The mark [7] stands for this setting: Mus musculus, po, 0.5 h, 100 mg/kg oral, 30 Min., read-out: Phenylquinone Writhing Assay (% Control), percent analgesia.
The mark [8] stands for this setting: Mus musculus, po, 0.5 h, 50 mg/kg oral, 30 Min., read-out: Phenylquinone Writhing Assay (% Control), percent analgesia.

Structures can show the parent of a compound that is named as a salt. Where two headings read alike, the source gives them in different places.

For “3-methoxy-5,6-di(4'-methylphenoxy)-1,2,4-triazine [Example 26]”, the “% Reduction of Edema” value in experiment [1] (200 mg/kg oral) amounted to 12%. Moreover, the “Phenylquinone Writhing Assay (% Control), percent analgesia” value in experiment [2] (25 mg/kg oral, 15 Min.) stood at 10%; in experiment [2] (25 mg/kg oral, 30 Min.) it was 10%; in experiment [2] (25 mg/kg oral, 60 Min) it was 10%; in experiment [2] (50 mg/kg oral, 15 Min.), 40%; in experiment [2] (50 mg/kg oral, 30 Min.), 10%; in experiment [2] (50 mg/kg oral, 60 Min), 20%. The “Phenylquinone Writhing Assay (% Control), percent analgesia” value in experiment [2] (100 mg/kg oral, 15 Min.) was 20%; in experiment [2] (100 mg/kg oral, 30 Min.), 50%; in experiment [2] (100 mg/kg oral, 60 Min), 50%.
For the compound `CSc1nnc(-c2ccc(Cl)cc2)c(-c2ccc(Cl)cc2)n1` [Example 54, 3-methylthio-5,6-bis(4'-chlorophenyl)-1,2,4-triazine], the inhibition in vivo at 200 mg/kg in experiment [1] (setting [3]) came to 7%. Besides, the responders at 100 mg/kg in experiment [2] (setting [4]) was 10%.
As for `c1ccc(Oc2nnc(-c3ccccc3)c(-c3ccccc3)n2)cc1` [Example 53, 3-phenoxy-5,6-diphenyl-1,2,4-triazine], the inhibition in vivo at 200 mg/kg in experiment [1] (setting [3]) was determined as 7%. Further, the values for the responders at 100 mg/kg in experiment [2] (setting [4]) and in experiment [2] (setting [5]) were 20% and 10%, respectively.
With `CSc1nncc(C(C)(C)C)n1` [Example 4, 3-methylthio-5-t-butyl-1,2,4-triazine], the inhibition in vivo at 150 mg/kg in experiment [1] (setting [6]) came to 57%. Besides, the responders at 100 mg/kg in experiment [2] (setting [7]) was determined as 20%.
Regarding `CSc1nncc(-c2ccc(N3CCOCC3)cc2)n1` [Example 40, 3-methylthio-5-(4'-morpholinophenyl)-1,2,4-triazine], the inhibition in vivo at 200 mg/kg in experiment [1] (setting [3]) came out at 19%. Besides, the responders at 100 mg/kg in experiment [2] (setting [4]) stood at 30%; in experiment [2] (setting [7]), 10%.
For `COc1nncc(-c2cccc3ccccc23)n1` [Example 29, 3-methoxy-5-(1'-naphthyl)-1,2,4-triazine], the inhibition in vivo at 200 mg/kg in experiment [1] (setting [3]) was 22%. Moreover, the responders at 30 mg/kg in experiment [2] (Mus musculus, po, 0.25 h, 30 mg/kg oral, 15 Min., read-out: Phenylquinone Writhing Assay (% Control), percent analgesia) is 10%. Moreover, in experiment [2] (setting [4]), the responders at 100 mg/kg was determined as 10%. Also, the responders at 50 mg/kg in experiment [2] (setting [8]) is 10%.
With `CSc1nncc(-c2ccco2)n1` [Example 9, 3-methylthio-5-(2-furyl)-1,2,4-triazine], in experiment [1] (setting [3]), the inhibition in vivo at 200 mg/kg came out at 39%. Further, the responders at 50 mg/kg in experiment [2] (setting [8]) was 50%; in experiment [2] (Mus musculus, po, 1 h, 50 mg/kg oral, 60 Min, read-out: Phenylquinone Writhing Assay (% Control), percent analgesia), 10%.
Regarding `CSc1nnc(C)c(C)n1` [Example 10, 3-methylthio-5,6-dimethyl-1,2,4-triazine], the inhibition in vivo at 70 mg/kg in experiment [1] (Rattus norvegicus, 70 mg/kg oral, read-out: % Reduction of Edema) worked out at 54%. The responders at 100 mg/kg is 70% in experiment [2] (setting [7]) and 20% in experiment [2] (setting [5]).
Consider `CCCOc1nncc(-c2ccccc2)n1` [Example 31, 3-n-propoxy-5-phenyl-1,2,4-triazine], for which the inhibition in vivo at 200 mg/kg in experiment [1] (setting [3]) amounted to 51%. Also, the responders at 100 mg/kg in experiment [2] (setting [4]) was 10%.
Consider `CC(C)(C)c1cnnc(NN)n1` [Example 5, 3-hydrazino-5-t-butyl-1,2,4-triazine], for which the inhibition in vivo at 175 mg/kg in experiment [1] (setting [6]) was determined as 82%. In experiment [2] (Mus musculus, po, 0.5 h, 25 mg/kg oral, 30 Min., read-out: Phenylquinone Writhing Assay (% Control), percent analgesia), the responders at 25 mg/kg was 20%.
Consider `CSc1nncc(-c2cccs2)n1` [Example 6, 3-methylthio-5-(2'-thienyl)-1,2,4-triazine], for which the inhibition in vivo at 200 mg/kg in experiment [1] (setting [3]) was determined as 51%. Further, the responders at 25 mg/kg in experiment [2] (Mus musculus, po, 0.25 h, 25 mg/kg oral, 15 Min., read-out: Phenylquinone Writhing Assay (% Control), percent analgesia) was determined as 20%. Also, the responders at 50 mg/kg in experiment [2] (setting [8]) came out at 70%.
Regarding `CSc1nncc(-c2ccccc2)n1` [Example 1, 3-methylthio-5-phenyl-1,2,4-triazine], the inhibition in vivo at 175 mg/kg in experiment [1] (setting [6]) is 27%. For the same compound, the responders at 50 mg/kg in experiment [2] (Mus musculus, po, 0.25 h, 50 mg/kg oral, 15 Min., read-out: Phenylquinone Writhing Assay (% Control), percent analgesia) is 10%. Moreover, the responders at 100 mg/kg in experiment [2] (setting [7]) came to 10%.
In the case of `CSc1nncc(-c2ccc(Br)cc2)n1` [Example 43, 3-methylthio-5-(4'-bromophenyl)-1,2,4-triazine], the inhibition in vivo at 200 mg/kg in experiment [1] (setting [3]) came to 20%. The responders at 100 mg/kg in experiment [2] (setting [4]), in experiment [2] (setting [7]) and in experiment [2] (setting [5]) was 10% each time.
On to `OCCNc1nncc(-c2ccccc2)n1` [Example 28, 3-B-hydroxyethyl amino-5-phenyl-1,2,4-triazine], for which the inhibition in vivo at 200 mg/kg in experiment [1] (setting [3]) is 43%. Moreover, the responders at 100 mg/kg in experiment [2] (setting [4]) stood at 30%; in experiment [2] (setting [7]) it was 10%; in experiment [2] (setting [5]), 10%.
As to `CSc1nncc(-c2c(C)cc(C)cc2C)n1` [Example 39, 3-methylthio-5-(2',4',6'-trimethylphenyl)-1,2,4-triazine], the inhibition in vivo at 200 mg/kg in experiment [1] (setting [3]) came to 7%. The responders at 100 mg/kg in experiment [2] (setting [4]) and in experiment [2] (setting [5]) was 10% in each case.
`COc1cc(-c2cnnc(SC)n2)ccc1O` [Example 32, 3-methylthio-5-(3'-methoxy-4'-hydroxyphenyl)-1,2,4-triazine]: the inhibition in vivo at 200 mg/kg in experiment [1] (setting [3]) is 5%. Further, the responders at 100 mg/kg in experiment [2] (setting [4]) was 30%; in experiment [2] (setting [7]), 10%; in experiment [2] (setting [5]) it was 10%.
As for `COc1nncc(-c2ccc3ccccc3c2)n1` [Example 22, 3-methoxy-5-(2'-naphthyl)-1,2,4-triazine], the inhibition in vivo at 200 mg/kg in experiment [1] (setting [3]) was found to be 7%. Further, the responders at 100 mg/kg is 20% in experiment [2] (setting [4]), 10% in experiment [2] (setting [7]) and 10% in experiment [2] (setting [5]).
For `COc1nncc(C23CC4CC(CC(C4)C2)C3)n1` [Example 36, 3-methoxy-5-(1'-adamantyl)-1,2,4-triazine], in experiment [1] (setting [6]), the inhibition in vivo at 150 mg/kg came out at 30%.
Take `COc1ccc(-c2cnnc(SC)n2)cc1OC` [Example 33, 3-methylthio-5-(3',4'-dimethoxyphenyl)-1,2,4-triazine]: the inhibition in vivo at 200 mg/kg in experiment [1] (setting [3]) is 32%.
On the same count and under the same terms, to `COc1nncc(C2CC2)n1` [Example 41, 3-methoxy-5-cyclopropyl-1,2,4-triazine] belongs 57%.
As for `CSc1nncc(-c2ccccc2)n1` [Example 59, 3-methylthio-5-phenyl-1,2,4-triazine (hydrogen iodide salt)], the inhibition in vivo at 150 mg/kg in experiment [1] (setting [6]) turned out to be 14%.
For `CSc1nncc(-c2c[nH]c3ccccc23)n1` [Example 13, 3-methylthio-5-(3'-indolyl)-1,2,4-triazine], the inhibition in vivo at 200 mg/kg in experiment [1] (setting [3]) is 71%.
On the same count and under the same terms, to `C=CCOc1nncc(-c2ccccc2)n1` [Example 47, 3-allyloxy-5-phenyl-1,2,4-triazine] belongs 67%.
Still for that read-out and setting: next, `COc1ccc(Oc2nncc(-c3ccccc3)n2)cc1` [Example 63, 3-(4'-methoxyphenoxy)-5-phenyl-1,2,4-triazine]: 15%.
For `COc1nnc(C)c(C)n1` [Example 23, 3-methoxy-5,6-dimethyl-1,2,4-triazine], the inhibition in vivo at 40 mg/kg in experiment [1] (Rattus norvegicus, 40 mg/kg oral, read-out: % Reduction of Edema) worked out at 4%.
For the compound `COc1nncc(-c2ccc(F)cc2F)n1` [Example 58, 3-methoxy-5-(2',4'-difluorophenyl)-1,2,4-triazine], the inhibition in vivo at 150 mg/kg in experiment [1] (setting [6]) amounted to 36%.
`COc1nncc(C)n1` [Example 17, 3-methoxy-5-methyl-1,2,4-triazine]: the inhibition in vivo at 200 mg/kg in experiment [1] (setting [3]) worked out at 8%.
As for `COc1nncc(-c2ccc(Br)cc2)n1` [Example 45, 3-methoxy-5-(4'-bromophenyl)-1,2,4-triazine], the inhibition in vivo at 200 mg/kg in experiment [1] (setting [3]) was found to be 33%.
